For data set [1], the system named is HCT-116 colon cancer cell line. The experiment in a line: MTT assay, in vitro cytotoxicity against HCT-116. Type of data set: cell-based. To be noted: read-out: IC50, in vitro cytotoxicity against HCT116 cell line. The method, then:
The target compounds were evaluated for their anticancer activity against HCT-116 colon cancer cell line in which both c-Met and VEGFR-2 are overexpressed.[54]^,[55] […] The half maximal inhibitory concentration (IC50) was calculated for each compound (Table 1).
(§1) To scrutinise the cytotoxicity of the target compounds on colorectal cancer and normal cells, MTT assay was carried out against HCT-116 and WI38 cell lines, respectively.
Background: Tetrazolium assays rely on reduction of a dye to a coloured formazan, in cell work by metabolically active cells.

A short description of data set [2]: MTT assay, in vitro toxicity against normal cells. In kind it is cell-based. To be noted: human, WI38 normal cells; MTT assay, WI38; read-out: IC50, in vitro cytotoxicity against WI38 normal cell line. The method, then: (§2) To scrutinise the safety of target compounds on normal cells, compounds 4b and 4e were selected to evaluate their cytotoxic activity against WI38 normal cell line (Table 2).
as §1

The subject of data set [3] is HCT-116 colon cancer cell line. In words: Cell cycle analysis. In kind it is cell-based. To be noted: HCT-116, treated at IC50 concentration, 24 h. The method, then: Aiming to further study the mechanism of the target compounds, the cell cycle arrest experiment of 4b and 4e blocking the cell cycle of HCT-116 was carried out using Annexin V-FITC/PI staining (Table 4 and Figure 8).[56]
(§3) The effects of both 4b and 4e on progress of cell cycle and induction of apoptosis in […] cells were carried out using Annexin V-FITC Apoptosis Detection Kit (BioVision Research Products, Mountain View, CA) (see Supplementary Data)[8].

The test system of a further data set is HCT-116 cells. In words: Apoptosis assay, Annexin V-FITC/PI staining. In kind it is cell-based. To be noted: HCT-116, treated at IC50 concentration, 24 h. On the procedure: Compared to the control group, the number of both early and late apoptotic cells of target compounds 4b and 4e was increased.
as §3

The target of another data set is c-Met (Homo sapiens, UniProt P08581). In words: In vitro c-Met tyrosine kinase inhibition assay.
The target of the next data set is VEGFR-2 (Homo sapiens, UniProt P35968). In words: In vitro VEGFR-2 tyrosine kinase inhibition assay (BPS KDR Assay Kit).
Another data set relates to WI38 normal cell line. In words: MTT assay, in vitro toxicity against normal cells. To be noted: HCT-116 versus WI38. Type of data set: cell-based. The method, then: as §2, §1
Where [4] appears, read: Homo sapiens, HCT-116, MTT assay.

Each structure is given as a SMILES string. Where two headings read alike, the source gives them in different places. Where only a bound is given, the exact number is not on record here.

c-Met, sequence (P08581 25-1390): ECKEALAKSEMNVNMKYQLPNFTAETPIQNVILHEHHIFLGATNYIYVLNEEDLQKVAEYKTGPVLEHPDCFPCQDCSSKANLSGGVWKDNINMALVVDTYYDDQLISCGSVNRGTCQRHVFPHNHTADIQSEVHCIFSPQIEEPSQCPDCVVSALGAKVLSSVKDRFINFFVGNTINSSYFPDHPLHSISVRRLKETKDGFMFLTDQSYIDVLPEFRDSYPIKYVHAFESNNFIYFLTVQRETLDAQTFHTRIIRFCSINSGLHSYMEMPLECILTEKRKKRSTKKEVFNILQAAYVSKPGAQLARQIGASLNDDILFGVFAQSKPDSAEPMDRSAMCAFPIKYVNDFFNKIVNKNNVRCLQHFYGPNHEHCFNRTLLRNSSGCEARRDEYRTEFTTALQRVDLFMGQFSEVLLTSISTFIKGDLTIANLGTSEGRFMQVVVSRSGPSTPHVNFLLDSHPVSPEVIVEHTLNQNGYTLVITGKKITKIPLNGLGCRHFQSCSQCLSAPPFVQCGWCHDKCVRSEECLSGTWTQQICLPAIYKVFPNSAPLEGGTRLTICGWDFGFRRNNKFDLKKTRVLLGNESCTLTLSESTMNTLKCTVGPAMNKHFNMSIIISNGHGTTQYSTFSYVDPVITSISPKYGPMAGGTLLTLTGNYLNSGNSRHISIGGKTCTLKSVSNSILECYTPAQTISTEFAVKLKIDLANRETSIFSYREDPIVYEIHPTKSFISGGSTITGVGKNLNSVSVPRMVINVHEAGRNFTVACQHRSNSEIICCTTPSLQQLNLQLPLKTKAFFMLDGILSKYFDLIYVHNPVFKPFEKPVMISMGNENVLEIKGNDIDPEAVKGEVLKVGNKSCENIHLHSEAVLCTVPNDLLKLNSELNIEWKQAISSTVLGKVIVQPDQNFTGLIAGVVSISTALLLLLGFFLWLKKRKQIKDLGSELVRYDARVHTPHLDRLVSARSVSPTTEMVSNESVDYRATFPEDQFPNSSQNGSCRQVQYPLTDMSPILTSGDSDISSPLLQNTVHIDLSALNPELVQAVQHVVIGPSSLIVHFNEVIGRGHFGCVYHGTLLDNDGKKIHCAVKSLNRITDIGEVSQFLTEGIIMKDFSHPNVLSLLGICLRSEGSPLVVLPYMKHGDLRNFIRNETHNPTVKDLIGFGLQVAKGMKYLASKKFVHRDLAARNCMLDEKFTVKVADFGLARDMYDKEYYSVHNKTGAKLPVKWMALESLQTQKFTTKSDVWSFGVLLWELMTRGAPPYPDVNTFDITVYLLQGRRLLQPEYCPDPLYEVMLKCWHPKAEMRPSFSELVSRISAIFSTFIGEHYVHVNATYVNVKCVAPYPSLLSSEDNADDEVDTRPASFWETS
VEGFR-2, sequence (P35968 20-1356): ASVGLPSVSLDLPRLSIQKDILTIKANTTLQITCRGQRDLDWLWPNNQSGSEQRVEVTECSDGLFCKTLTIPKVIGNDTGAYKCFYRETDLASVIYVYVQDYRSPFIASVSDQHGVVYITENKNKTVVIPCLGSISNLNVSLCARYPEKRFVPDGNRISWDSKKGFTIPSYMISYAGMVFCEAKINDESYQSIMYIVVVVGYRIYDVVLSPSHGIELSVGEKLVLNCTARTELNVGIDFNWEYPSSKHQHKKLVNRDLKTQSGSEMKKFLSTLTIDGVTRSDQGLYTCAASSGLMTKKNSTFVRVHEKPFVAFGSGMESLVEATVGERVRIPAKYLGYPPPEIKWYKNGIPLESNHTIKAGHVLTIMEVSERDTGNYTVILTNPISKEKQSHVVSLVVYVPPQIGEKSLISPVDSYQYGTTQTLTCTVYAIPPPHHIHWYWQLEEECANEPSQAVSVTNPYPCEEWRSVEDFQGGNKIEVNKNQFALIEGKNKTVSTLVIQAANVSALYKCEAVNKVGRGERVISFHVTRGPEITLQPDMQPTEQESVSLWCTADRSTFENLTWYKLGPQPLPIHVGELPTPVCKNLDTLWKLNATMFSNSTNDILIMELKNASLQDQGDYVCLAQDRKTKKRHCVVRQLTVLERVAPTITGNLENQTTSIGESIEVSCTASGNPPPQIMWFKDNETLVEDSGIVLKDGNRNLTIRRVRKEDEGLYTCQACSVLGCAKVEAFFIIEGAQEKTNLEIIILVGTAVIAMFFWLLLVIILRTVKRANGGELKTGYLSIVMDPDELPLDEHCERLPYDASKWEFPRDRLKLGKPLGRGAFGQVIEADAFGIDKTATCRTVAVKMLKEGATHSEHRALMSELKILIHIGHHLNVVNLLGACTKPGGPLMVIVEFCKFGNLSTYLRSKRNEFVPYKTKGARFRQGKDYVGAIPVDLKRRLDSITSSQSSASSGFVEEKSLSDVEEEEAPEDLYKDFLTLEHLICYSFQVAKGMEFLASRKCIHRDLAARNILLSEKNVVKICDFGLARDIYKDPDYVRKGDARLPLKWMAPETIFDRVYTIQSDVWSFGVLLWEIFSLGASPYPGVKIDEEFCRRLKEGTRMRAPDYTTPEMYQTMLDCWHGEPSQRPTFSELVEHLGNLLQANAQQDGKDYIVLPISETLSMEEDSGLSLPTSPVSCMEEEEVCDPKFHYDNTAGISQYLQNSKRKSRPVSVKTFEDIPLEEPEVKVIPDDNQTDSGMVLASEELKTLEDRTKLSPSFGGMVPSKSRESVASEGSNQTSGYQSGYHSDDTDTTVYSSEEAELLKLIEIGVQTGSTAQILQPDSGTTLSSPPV

One may read the IC50 as the concentration needed to halve the response being measured. Regarding `COc1cc2nccc(Oc3ccc(NC(=O)C4(C(=O)Nc5ccc(F)cc5)CC4)cc3)c2cc1OC` [Cabozantinib, reference compound], the IC50 in data set [1] (setting [4]) is 16.4 ± 0.86 µM. The IC50 in data set [2] came out at 44.7 ± 2.65 µM. In addition, in data set [3], the “%G0–G1” value is given as 43.12%, the “%G2/M” value was found to be 24.72% and the “%S” value is 32.16%. In the data set with HCT-116 cells, the “%Necrosis” value was found to be 3.63%, the “Apoptosis %Early” value amounted to 12.52%, the “Apoptosis %Late” value was found to be 19.61% and the “Apoptosis %Total” value stood at 32.13%.
One may read the melting point as the temperature of the solid-liquid transition. Consider `O=C(Cn1c(=O)[nH]c2ccccc2c1=O)N1CCOCC1` [Compound 2f, 3-(2-Morpholino-2-oxoethyl)quinazoline-2,4(1H,3H)-dione], for which the melting point was in the range of 254 to 255 °C. Also, the 50% inhibitory concentration (IC50) in data set [1] (setting [4]) is 5.4 ± 0.29 µM. The same molecule yielded an IC50 at c-Met of 161 ± 7 nM. The same molecule had a c-Met %inh on c-Met (conc 0.01 (unit not given)) of 22.84%. This molecule also showed a c-Met %inh at c-Met (conc 0.1 (unit not given)) of 44.08%. Moreover, the c-Met %inh at c-Met (conc 1 (unit not given)) was determined as 70.59%. Besides, the c-Met %inh on c-Met (conc 10 (unit not given)) was found to be 88.98%. The same molecule had an IC50 against VEGFR-2 of 210 ± 9 nM. At VEGFR-2 (conc 0.01 (unit not given)), this molecule had a VEGFR-2 %inh of 18.54%. In addition, the VEGFR-2 %inh at VEGFR-2 (conc 0.1 (unit not given)) is reported as 43.39%. The same molecule registered a VEGFR-2 %inh at VEGFR-2 (conc 1 (unit not given)) of 68.26%. The same molecule came in with a VEGFR-2 %inh at VEGFR-2 (conc 10 (unit not given)) of 85.96%.
Regarding `O=C(Cn1c(=O)[nH]c2ccccc2c1=O)NCC(=O)N/N=C/c1ccccc1` [Compound 4a, (E)-N-[2-(2-Benzylidenehydrazineyl)-2-oxoethyl]-2-(2,4-dioxo-1,4-dihy-droquinazolin-3(2H)-yl)acetamide], the melting point turned out to be 325 °C. In addition, the 50% inhibitory concentration (IC50) in data set [1] (setting [4]) is 36.9 ± 1.95 µM.
As for `O=C(Cn1c(=O)[nH]c2ccccc2c1=O)NCC(=O)N/N=C/c1ccc([N+](=O)[O-])cc1` [Compound 4b, (E)-2-(2,4-Dioxo-1,4-dihydroquinazolin-3(2H)-yl)-N-[2-(2-[4-nitrobenz-ylidene]hydrazineyl)-2-oxoethyl]acetamide], the half-inhibitory concentration (IC50) in data set [1] (setting [4]) was < 1 µM; in data set [1] (MTT assay), 0.734 ± 0.04 µM; in data set [2], 18.4 ± 1.09 µM; on c-Met it was 63 ± 3 nM; against VEGFR-2, 35 ± 2 nM. The “cytotoxic activity against HCT-116 colon cancer cells, times more than WI38 normal cells” value in the data set on WI38 normal cell line is reported as 25 times. Further, the “%G0–G1” value in data set [3] is reported as 39.59%. Moreover, in data set [3], the “%G2/M” value worked out at 9.34%. For the same molecule, the “%S” value in data set [3] amounted to 51.07%. Further, the “%Necrosis” value in the data set on HCT-116 cells was 4.53%. For the same molecule, the “Apoptosis %Early” value with HCT-116 cells was 15.28%. Further, the “Apoptosis %Late” value in the data set with HCT-116 cells worked out at 26.41%. Moreover, the “Apoptosis %Total” value in the data set on HCT-116 cells was determined as 41.69%. The c-Met %inh at c-Met (conc 0.01 (unit not given)) stood at 27.49%; on c-Met (conc 0.1 (unit not given)) it was 58.65%; on c-Met (conc 1 (unit not given)), 82.51%; on c-Met (conc 10 (unit not given)), 93.15%. Also, the VEGFR-2 %inh stood at 38.24% at VEGFR-2 (conc 0.01 (unit not given)), 60.12% on VEGFR-2 (conc 0.1 (unit not given)), 78.48% on VEGFR-2 (conc 1 (unit not given)) and 90.09% on VEGFR-2 (conc 10 (unit not given)).
Regarding `COc1ccc(/C=N/NC(=O)CNC(=O)Cn2c(=O)[nH]c3ccccc3c2=O)cc1` [Compound 4c, (E)-2-(2,4-Dioxo-1,4-dihydroquinazolin-3(2H)-yl)-N-[2-(2-[4-methoxy-benzylidene]hydrazineyl)-2-oxoethyl]acetamide], the melting point is 290 to 292 °C. Besides, the IC50 in data set [1] (setting [4]) came out at 31.8 ± 1.68 µM.
As for `O=C(Cn1c(=O)[nH]c2ccccc2c1=O)NCC(=O)NN=C1CCCCC1` [Compound 4e, N-[2-(2-Cyclohexylidenehydrazineyl)-2-oxoethyl]-2-(2,4-dioxo-1,4-dihydroquinazolin-3(2H)-yl)acetamide], the IC50 in data set [1] (setting [4]) worked out at 1.41 ± 0.07 µM; in data set [2], 10.6 ± 0.62 µM; on c-Met it was 69 ± 3 nM; against VEGFR-2, 82 ± 4 nM. Also, the “cytotoxic activity against HCT-116 colon cancer cells, times more than WI38 normal cells” value in the data set on WI38 normal cell line was found to be 7.5 times. For the same molecule, the “%G0–G1” value in data set [3] is on record as 44.60%. The “%G2/M” value in data set [3] was determined as 8.51%. Also, the “%S” value in data set [3] came to 46.89%. In addition, the “%Necrosis” value in the data set on HCT-116 cells is 2.28%. For the same molecule, in the data set with HCT-116 cells, the “Apoptosis %Early” value was determined as 26.76%. Besides, the “Apoptosis %Late” value in the data set with HCT-116 cells came to 12.02%. Also, the “Apoptosis %Total” value with HCT-116 cells is reported as 38.78%. The c-Met %inh on c-Met (conc 0.01 (unit not given)) was 28.94%; on c-Met (conc 0.1 (unit not given)), 55.05%; at c-Met (conc 1 (unit not given)) it was 80.41%; on c-Met (conc 10 (unit not given)), 92.94%. For the same molecule, the VEGFR-2 %inh worked out at 33.05% at VEGFR-2 (conc 0.01 (unit not given)), 50.29% on VEGFR-2 (conc 0.1 (unit not given)), 73.09% on VEGFR-2 (conc 1 (unit not given)) and 86.83% at VEGFR-2 (conc 10 (unit not given)).
The molecule `Cc1cc(C)n(C(=O)CNC(=O)Cn2c(=O)[nH]c3ccccc3c2=O)n1` [Compound 4g, N-[2-(3,5-Dimethyl-1H-pyrazol-1-yl)-2-oxoethyl]-2-(2,4-dioxo-1,4-dihyd-roquinazolin-3(2H)-yl)acetamide] yielded a melting point of 284 to 286 °C. For the same molecule, the half-inhibitory concentration (IC50) in data set [1] (setting [4]) worked out at 3.7 ± 0.2 µM. Besides, on c-Met, the half-inhibitory concentration (IC50) was 271 ± 12 nM. In addition, the c-Met %inh at c-Met (conc 0.01 (unit not given)) was 20.56%. The c-Met %inh on c-Met (conc 0.1 (unit not given)) is recorded as 34.11%. This molecule showed a c-Met %inh at c-Met (conc 1 (unit not given)) of 65.69%. The molecule further returned a c-Met %inh at c-Met (conc 10 (unit not given)) of 85.71%. For the same molecule, it took 103 ± 5 nM to reach half-maximal inhibition against VEGFR-2 (IC50). The molecule further showed a VEGFR-2 %inh at VEGFR-2 (conc 0.01 (unit not given)) of 27.96%. Also, the VEGFR-2 %inh on VEGFR-2 (conc 0.1 (unit not given)) worked out at 52.07%. This molecule gave a VEGFR-2 %inh at VEGFR-2 (conc 1 (unit not given)) of 70.58%. The molecule also came in with a VEGFR-2 %inh at VEGFR-2 (conc 10 (unit not given)) of 88.15%.
Turning to `O=C(Cn1c(=O)[nH]c2ccccc2c1=O)NCC(=O)NNC(=S)Nc1ccccc1` [Compound 4i, 2-(2,4-Dioxo-1,4-dihydroquinazolin-3(2H)-yl)-N-[2-oxo-2-(2-[phenylcar-bamothioyl]hydrazineyl)ethyl]acetamide], the melting point is 287 to 290 °C. In addition, the concentration for half-maximal inhibition (IC50) in data set [1] (setting [4]) came to 9.2 ± 0.49 µM.

(Values after paper PMC10026756.)
